The target of experiment [1] is recombinant USP30 (amino acids 57-517 of the human sequence) (Homo sapiens (Human), UniProt Q70CQ3). Briefly: In vitro USP30 biochemical assay (Ubiquitin-Rhodamine substrate). The conditions noted are these: fluorescence. As for the experimental part:
In vitro biochemical assay to establish the potency of compounds for USP30 inhibition: a 384-well plate assay using a fluorophore tagged substrate of USP30 was used for in vitro screening of compounds. Each compound was tested at
10 different concentrations (0.5 to 10,000 nM) in duplicate wells. […] Data were analyzed using Graph Pad Prism software with a four-parameter (floating slope) fit to log concentration data to determine IC50s.

For another experiment, the target named is USP30 (Homo sapiens (Human), UniProt Q70CQ3). As to the kind of experiment: Dundee MALDI-TOF mass spectrometry assay (K48-linked diubiquitin cleavage). The experiment is classed as biochemical. The conditions noted are these: USP30 25 ng/μl, K48-linked diubiquitin 5.6 μM, read-out: USP30 IC50 μM (avg). As for the experimental part:
USP30 was diluted in a buffer containing 40 mM Tris, 0.01% BSA, 1 mM DTT and K48 in 40 mM Tris, 0.01% BSA.
The compounds were pre-incubated with the USP30 for 5 mins at room temp before the K48 dimer addition. The assay mixture was then incubated for 45 mins at room temp. The assay was stopped by the addition of TFA to a final concentration of 2% (v/v).
Acidified samples of the DUB assays were mixed with 0.5 mM 15N-ubiquitin and then with one part of 2% (v/v) TFA and one part of 2.5 DHAP matrix solution (7.6 mg of 2.5 DHAP in […] ethanol and […] of an aqueous 12 mg ml 1 diammonium hydrogen citrate).

[2] abbreviates: 1.5 nM recombinant USP30, 25 nM Ubiquitin-Rhodamine.
The mark [3] stands for this setting: […] recombinant USP30, 25 nM Ubiquitin-Rhodamine.

SMILES strings stand for the structures.

Chain of USP30 (Q70CQ3 whole entry): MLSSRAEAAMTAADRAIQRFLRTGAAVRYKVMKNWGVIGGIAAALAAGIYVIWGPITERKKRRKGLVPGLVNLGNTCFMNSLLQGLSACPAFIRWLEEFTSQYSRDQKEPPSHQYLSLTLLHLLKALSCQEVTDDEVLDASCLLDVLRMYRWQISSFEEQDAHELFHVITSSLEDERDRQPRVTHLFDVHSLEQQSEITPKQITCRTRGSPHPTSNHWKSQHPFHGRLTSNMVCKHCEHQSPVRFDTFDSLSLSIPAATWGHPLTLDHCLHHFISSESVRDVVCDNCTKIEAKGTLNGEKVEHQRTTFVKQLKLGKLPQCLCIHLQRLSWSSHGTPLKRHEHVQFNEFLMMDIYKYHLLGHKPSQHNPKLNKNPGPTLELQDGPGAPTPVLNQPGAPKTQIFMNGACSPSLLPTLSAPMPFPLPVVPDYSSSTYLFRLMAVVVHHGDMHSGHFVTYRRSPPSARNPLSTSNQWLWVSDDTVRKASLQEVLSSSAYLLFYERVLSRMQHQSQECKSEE
Chain of recombinant USP30 (amino acids 57-517 of the human sequence) (Q70CQ3 57-517): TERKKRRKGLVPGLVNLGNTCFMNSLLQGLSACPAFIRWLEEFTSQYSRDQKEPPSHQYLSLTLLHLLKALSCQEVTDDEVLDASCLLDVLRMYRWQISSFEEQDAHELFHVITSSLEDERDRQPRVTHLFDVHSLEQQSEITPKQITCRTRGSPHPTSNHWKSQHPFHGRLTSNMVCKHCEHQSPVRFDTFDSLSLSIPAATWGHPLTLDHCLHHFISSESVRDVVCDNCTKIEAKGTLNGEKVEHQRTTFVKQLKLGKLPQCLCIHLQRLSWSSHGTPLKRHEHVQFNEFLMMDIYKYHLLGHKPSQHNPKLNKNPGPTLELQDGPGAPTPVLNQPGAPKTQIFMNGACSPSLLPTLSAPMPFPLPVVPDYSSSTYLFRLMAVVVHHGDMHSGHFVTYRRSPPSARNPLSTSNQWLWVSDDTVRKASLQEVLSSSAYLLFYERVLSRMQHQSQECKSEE

Turning to `O=C(N[C@@H](CC1CCNCC1)C(=O)Nc1ccc(S(=O)(=O)N[C@@H]2CCOC2)cc1)c1ccc(F)cc1` [Compound I-107], the half-inhibitory concentration (IC50) (in experiment [1] (setting [2]); at USP30) was 0.05 to 1 µM throughout.

For the compound `COc1cc(NC(=O)[C@H](CC2CCNCC2)NC(=O)c2ccc(F)cc2)ccc1S(=O)(=O)NC1COC1` [Compound I-109, (S)-4-fluoro-N-(1-((3-methoxy-4-(N-(oxetan-3-yl)sulfamoyl)phenyl)amino)-1-oxo-3-(piperidin-4-yl)propan-2-yl)benzamide], the results for the half-inhibitory concentration (IC50) (in experiment [1] (setting [2]); on USP30) were 0.05 to 1 µM and below 0.05 µM, respectively.

`COc1cc(NC(=O)[C@H](CC2CCNCC2)NC(=O)c2ccc(F)cc2)ccc1S(=O)(=O)N[C@@H]1CCOC1` [Compound I-110]: the half-inhibitory concentration (IC50) (in experiment [1] (setting [2]); at USP30) was 0.05 to 1 µM each time.

With `CC(C)(CF)NS(=O)(=O)c1ccc(NC(=O)[C@H](CC2CCOCC2)NC(=O)c2ccc(F)cc2)cc1` [Compound I-112], the IC50 (in experiment [1] (setting [3]); at USP30) was below 0.05 µM throughout.

In the case of `CC(C)(C)NS(=O)(=O)c1ccc(NC(=O)[C@H](CC2CCN(Cc3ccccc3)CC2)NC(=O)c2ccc(F)cc2)cc1` [Compound I-115], the 50% inhibitory concentration (IC50) (in experiment [1] (setting [3]); on USP30) was below 0.05 µM each time.

On to `CC(C)(C)NS(=O)(=O)c1ccc(NC(=O)C(CC2CCN(CCO)CC2)NC(=O)c2ccc(F)cc2)cc1` (stereo not drawn) [Compound I-121], for which the half-inhibitory concentration (IC50) (in experiment [1] (setting [3]); on USP30) was below 0.05 µM in each case.

As for `CC(C)(CF)NS(=O)(=O)c1ccc(NC(=O)[C@H](CC2CCNCC2)NC(=O)c2ccc(F)cc2)cc1` [Compound I-122], the results for the concentration for half-maximal inhibition (IC50) (in experiment [1] (setting [2]); on USP30) were 0.05 to 1 µM and below 0.05 µM, respectively.

For the compound `N#CN1CC[C@@H](NC(=O)[C@H](Cc2ccccc2)NC(=O)c2ccc(F)cc2)C1` [Compound I-125], the IC50 (in experiment [1] (setting [2]); at USP30) was 0.05 to 1 µM in each case.

Take `O=C(N[C@@H](CC1CCOCC1)C(=O)Nc1ccc(S(=O)(=O)NC2CCOCC2)cc1)c1ccc(F)cc1` [Compound I-128]: the half-inhibitory concentration (IC50) in experiment [1] (setting [2]) is 0.05 to 1 µM; at USP30, below 0.05 µM.

With `C[C@@H](CO)NS(=O)(=O)c1ccc(NC(=O)[C@H](Cc2ccccc2)NC(=O)c2ccc(F)cc2)cc1` [Compound I-129], the IC50 is 0.05 to 1 µM in experiment [1] (setting [2]) and below 0.05 µM at USP30.

Take `C[C@H](CO)NS(=O)(=O)c1ccc(NC(=O)[C@H](Cc2ccccc2)NC(=O)c2ccc(F)cc2)cc1` [Compound I-130]: the half-inhibitory concentration (IC50) (in experiment [1] (setting [3]); on USP30) was below 0.05 µM in each case.

Take `O=C(N[C@@H](Cc1ccccc1)C(=O)Nc1ccc(S(=O)(=O)NC2(CO)CC2)cc1)c1ccc(F)cc1` [Compound I-131]: the half-maximal inhibitory concentration (IC50) (in experiment [1] (setting [3]); at USP30) was below 0.05 µM each time.

Turning to `CC(CO)(CO)NS(=O)(=O)c1ccc(NC(=O)[C@H](Cc2ccccc2)NC(=O)c2ccc(F)cc2)cc1` [Compound I-132], the results for the 50% inhibitory concentration (IC50) (in experiment [1] (setting [2]); at USP30) were 0.05 to 1 µM and below 0.05 µM, respectively.

Turning to `O=C(N[C@@H](CC1CCOCC1)C(=O)Nc1ccc(S(=O)(=O)NC2CCOCC2)nc1)c1ccc(F)cc1` [Compound I-133], the IC50 in experiment [1] (setting [2]) is 0.05 to 1 µM; on USP30 it was below 0.05 µM.

In the case of `COc1cc(NC(=O)[C@H](Cc2ccccc2)NC(=O)c2ccc(F)cc2)ccc1S(=O)(=O)N[C@@H](C)CO` [Compound I-136], the IC50 in experiment [1] (setting [2]) is 0.05 to 1 µM; on USP30, below 0.05 µM.

For the compound `COc1cc(NC(=O)[C@H](Cc2ccccc2)NC(=O)c2ccc(F)cc2)ccc1S(=O)(=O)N[C@H](C)CO` [Compound I-137], the figures for the IC50 (in experiment [1] (setting [2]); at USP30) were 0.05 to 1 µM and below 0.05 µM, respectively.

For `COc1cc(NC(=O)[C@H](Cc2ccccc2)NC(=O)c2ccc(F)cc2)ccc1S(=O)(=O)NC(C)(CO)CO` [Compound I-138], the results for the half-maximal inhibitory concentration (IC50) (in experiment [1] (setting [2]); on USP30) were 0.05 to 1 µM and below 0.05 µM, respectively.

`COc1cc(NC(=O)[C@H](Cc2ccccc2)NC(=O)c2ccc(F)cc2)ccc1S(=O)(=O)NC1(CO)CC1` [Compound I-141]: the IC50 in experiment [1] (setting [2]) is 0.05 to 1 µM; at USP30, below 0.05 µM.

Regarding `COc1cc(NC(=O)[C@H](CC2CCN(C)CC2)NC(=O)c2ccc(F)cc2)ccc1S(=O)(=O)NC1CCOCC1` [Compound I-143], the IC50 (in experiment [1] (setting [2]); at USP30) was 0.05 to 1 µM in each case.

In the case of `CC(C)(C)NS(=O)(=O)c1ccc(NC(=O)C(CC2CCN(C=O)CC2)NC(=O)c2ccc(F)cc2)cc1` (stereo not drawn) [Compound I-145], the half-maximal inhibitory concentration (IC50) (in experiment [1] (setting [3]); on USP30) was below 0.05 µM throughout.

For the compound `CC(CO)(CO)NS(=O)(=O)c1ccc(NC(=O)[C@H](Cc2ccccc2)NC(=O)c2ccc(F)cc2)cn1` [Compound I-148], the IC50 (in experiment [1] (setting [2]); on USP30) was 0.05 to 1 µM each time.

Regarding `C[C@@H](CO)NS(=O)(=O)c1ccc(NC(=O)[C@H](Cc2ccccc2)NC(=O)c2ccc(F)cc2)cn1` [Compound I-149], the figures for the IC50 (in experiment [1] (setting [2]); at USP30) were 0.05 to 1 µM and below 0.05 µM, respectively.

Take `O=C(N[C@@H](Cc1ccccc1)C(=O)Nc1ccc(S(=O)(=O)NC2(CO)CC2)nc1)c1ccc(F)cc1` [Compound I-150]: the figures for the IC50 (in experiment [1] (setting [2]); on USP30) were 0.05 to 1 µM and below 0.05 µM, respectively.

As for `C[C@H](CO)NS(=O)(=O)c1ccc(NC(=O)[C@H](Cc2ccccc2)NC(=O)c2ccc(F)cc2)cn1` [Compound I-151], the IC50 in experiment [1] (setting [2]) is 0.05 to 1 µM; at USP30 it was below 0.05 µM.

With `COc1cc(NC(=O)[C@H](CC2CCNCC2)NC(=O)c2ccc(F)cc2)ccc1S(=O)(=O)NC(C)(C)C` [Compound I-155], the half-inhibitory concentration (IC50) in experiment [1] (setting [2]) was 0.05 to 1 µM; on USP30, below 0.05 µM.

As to `CC(=O)N1CCC(C[C@H](NC(=O)c2ccc(F)cc2)C(=O)Nc2ccc(S(=O)(=O)NC(C)(C)C)nc2)CC1` [Compound I-156], the IC50 (in experiment [1] (setting [3]); on USP30) was below 0.05 µM each time.

Regarding `O=C(N[C@@H](CC1CCNCC1)C(=O)Nc1ccc(S(=O)(=O)NC2CCOCC2)cc1)c1ccc(F)cc1` [Compound I-157], the IC50 (in experiment [1] (setting [2]); at USP30) was 0.05 to 1 µM each time.

Turning to `CN1CCC(C[C@H](NC(=O)c2ccc(F)cc2)C(=O)Nc2ccc(S(=O)(=O)NC(C)(C)C(F)(F)F)cc2)CC1` [Compound I-158], the concentration for half-maximal inhibition (IC50) is 0.05 to 1 µM in experiment [1] (setting [2]) and below 0.05 µM on USP30.

As for `COc1cc(NC(=O)[C@H](CC2CCNCC2)NC(=O)c2ccc(F)cc2)ccc1S(=O)(=O)NC(C)(C)CO` [Compound I-159], the IC50 (in experiment [1] (setting [2]); at USP30) was 0.05 to 1 µM throughout.

As to `COc1cc(NC(=O)[C@H](CC2CCN(C(C)=O)CC2)NC(=O)c2ccc(F)cc2)ccc1S(=O)(=O)NC(C)(C)C` [Compound I-160], the IC50 (in experiment [1] (setting [3]); at USP30) was below 0.05 µM in each case.

As to `CC(C)C(=O)N1CCC(C[C@H](NC(=O)c2ccc(F)cc2)C(=O)Nc2ccc(S(=O)(=O)NC(C)(C)C)cc2)CC1` [Compound I-161], the concentration for half-maximal inhibition (IC50) (in experiment [1] (setting [3]); at USP30) was below 0.05 µM throughout.

As for `CC(C)(C)NS(=O)(=O)c1ccc(NC(=O)[C@H](Cc2ccccc2)NC(=O)c2ccc(F)nc2)cc1` [Compound I-163], the IC50 (in experiment [1] (setting [3]); at USP30) was below 0.05 µM each time.

`CN1CCC(C[C@H](NC(=O)c2ccc(F)cc2)C(=O)Nc2ccc(S(=O)(=O)NC3CCOCC3)cc2)CC1` [Compound I-164]: the values for the half-maximal inhibitory concentration (IC50) (in experiment [1] (setting [2]); on USP30) were 0.05 to 1 µM and below 0.05 µM, respectively.

Regarding `CC(C)(C)NS(=O)(=O)c1ccc(NC(=O)[C@H](CC2CCN(C#N)CC2)NC(=O)c2ccc(F)cc2)cc1` [Compound I-165], the IC50 (in experiment [1] (setting [3]); on USP30) was below 0.05 µM in each case.

As for `CC(C)(C)NS(=O)(=O)c1ccc(NC(=O)[C@H](Cc2ccccc2)NC(=O)c2ccon2)cc1` [Compound I-167], the IC50 (in experiment [1] (setting [2]); at USP30) was 0.05 to 1 µM in each case.

Regarding `CC(C)(C)NS(=O)(=O)c1ccc(NC(=O)[C@H](Cc2ccccc2)NC(=O)c2nccs2)cc1` [Compound I-168], the half-inhibitory concentration (IC50) in experiment [1] (setting [2]) is 0.05 to 1 µM; on USP30 it was below 0.05 µM.

Take `CNCCN1CCC(C[C@H](NC(=O)c2ccc(F)cc2)C(=O)Nc2ccc(S(=O)(=O)NC(C)(C)C)cc2)CC1` [Compound I-171]: the half-inhibitory concentration (IC50) (in experiment [1] (setting [3]); on USP30) was below 0.05 µM throughout.

With `CC(=O)CN1CCC(C[C@H](NC(=O)c2ccc(F)cc2)C(=O)Nc2ccc(S(=O)(=O)NC(C)(C)C)cc2)CC1` [Compound I-172], the values for the 50% inhibitory concentration (IC50) (in experiment [1] (setting [2]); at USP30) were 0.05 to 1 µM and below 0.05 µM, respectively.

Take `COCCN1CCC(C[C@H](NC(=O)c2ccc(F)cc2)C(=O)Nc2ccc(S(=O)(=O)NC(C)(C)C)cc2)CC1` [Compound I-173]: the IC50 (in experiment [1] (setting [3]); at USP30) was below 0.05 µM throughout.

Take `CC(C)(C)NS(=O)(=O)c1ccc(NC(=O)[C@H](Cc2ccccc2)NC(=O)C2CCOCC2)cc1` [Compound I-174]: the half-inhibitory concentration (IC50) (in experiment [1] (setting [2]); at USP30) was 0.05 to 1 µM in each case.

On to `CC(C)(C)NS(=O)(=O)c1ccc(NC(=O)[C@H](CC2CCOCC2)NC(=O)c2ccc(F)cn2)cc1` [Compound I-177], for which the IC50 (in experiment [1] (setting [3]); at USP30) was below 0.05 µM throughout.

With `CC(C)(C)NS(=O)(=O)c1cccc2c(NC(=O)[C@H](Cc3ccccc3)NC(=O)c3ccc(F)nc3)cccc12` [Compound I-182], the concentration for half-maximal inhibition (IC50) (in experiment [1] (setting [3]); at USP30) was below 0.05 µM throughout.
